Test results published in US20100112055A1, “MICROPOROUS FILM AND PREPARATION AND USE THEREOF” (NATIONAL TAIWAN UNIVERSITY, priority 2008, published 2010).

Assay: Pharmacokinetic study in vivo, plasma theophylline by HPLC
Conditions: male, rabbit, rabbits, intravenous injection, n = 5
Protocol: The male rabbits were used as an animal model in this invention. Each rabbit was intravenous injection of theophylline solution, orally administered an uncoated theophylline core tablet (TH-Lac) and a coated micropore-controlled release tablet (TH-Lac-A50), respectively. Blood samples were collected at specific time points, and the plasma concentrations of theophylline were analyzed by high-performance liquid chromatography equipped with a reverse-phase column (Hypersil BDS C18, 250×4.6 mm, 5 μm) and a UV spectrophotometer at a wavelength of 272 nm (Shimadzu SPD-6AV). The mobile phase constituted by acetonitrile and 0.2 M acetate buffer solution (pH 4.5) in the ratio of 6.5:93.5% v/v was applied at a flow rate of 1.0 mL/min.

Question: With Cn1c(=O)c2[nH]cnc2n(C)c1=O [IV-TH, theophylline] as the compound, how does the AUC(0-inf) read?
Answer: Its AUC(0-inf) is 117 ± 25.9 µg·h/mL.

Question: What about the Cmax of the same compound?
Answer: Its Cmax is 21200 ± 1990 ng/mL.

Question: And the MRT?
Answer: The MRT was 7.7 ± 1.16 h.

Question: What about the Tmax of the same compound?
Answer: The Tmax was 0.25 h.
